Assay results as given in patent US10259810B2, “N-sulfonylated pyrazolo[3,4-b]pyridin-6-carboxamides and method of use” (AbbVie S.à.r.l., priority 2015, dated 2019).

What was measured:
Assay type in all cases: cell-based
ΔF508-CFTR [1] = biological target: T1, ΔF508-CFTR (Homo sapiens, UniProt P13569, DEL508-508); assay: CFTR cell surface levels using HRP-tagged ΔF508-CFTR expressing CFBE cells, in the presence of a co-corrector; conditions: HRP-tagged ΔF508-CFTR CFBE cells, in the presence of 3 μM co-corrector; for EC50: read-out: EC50
T1 construct: host or cells: CFBE41o-, doxycycline-inducible
T1 sequence (P13569 with tags, fused parts or gaps DEL508-508): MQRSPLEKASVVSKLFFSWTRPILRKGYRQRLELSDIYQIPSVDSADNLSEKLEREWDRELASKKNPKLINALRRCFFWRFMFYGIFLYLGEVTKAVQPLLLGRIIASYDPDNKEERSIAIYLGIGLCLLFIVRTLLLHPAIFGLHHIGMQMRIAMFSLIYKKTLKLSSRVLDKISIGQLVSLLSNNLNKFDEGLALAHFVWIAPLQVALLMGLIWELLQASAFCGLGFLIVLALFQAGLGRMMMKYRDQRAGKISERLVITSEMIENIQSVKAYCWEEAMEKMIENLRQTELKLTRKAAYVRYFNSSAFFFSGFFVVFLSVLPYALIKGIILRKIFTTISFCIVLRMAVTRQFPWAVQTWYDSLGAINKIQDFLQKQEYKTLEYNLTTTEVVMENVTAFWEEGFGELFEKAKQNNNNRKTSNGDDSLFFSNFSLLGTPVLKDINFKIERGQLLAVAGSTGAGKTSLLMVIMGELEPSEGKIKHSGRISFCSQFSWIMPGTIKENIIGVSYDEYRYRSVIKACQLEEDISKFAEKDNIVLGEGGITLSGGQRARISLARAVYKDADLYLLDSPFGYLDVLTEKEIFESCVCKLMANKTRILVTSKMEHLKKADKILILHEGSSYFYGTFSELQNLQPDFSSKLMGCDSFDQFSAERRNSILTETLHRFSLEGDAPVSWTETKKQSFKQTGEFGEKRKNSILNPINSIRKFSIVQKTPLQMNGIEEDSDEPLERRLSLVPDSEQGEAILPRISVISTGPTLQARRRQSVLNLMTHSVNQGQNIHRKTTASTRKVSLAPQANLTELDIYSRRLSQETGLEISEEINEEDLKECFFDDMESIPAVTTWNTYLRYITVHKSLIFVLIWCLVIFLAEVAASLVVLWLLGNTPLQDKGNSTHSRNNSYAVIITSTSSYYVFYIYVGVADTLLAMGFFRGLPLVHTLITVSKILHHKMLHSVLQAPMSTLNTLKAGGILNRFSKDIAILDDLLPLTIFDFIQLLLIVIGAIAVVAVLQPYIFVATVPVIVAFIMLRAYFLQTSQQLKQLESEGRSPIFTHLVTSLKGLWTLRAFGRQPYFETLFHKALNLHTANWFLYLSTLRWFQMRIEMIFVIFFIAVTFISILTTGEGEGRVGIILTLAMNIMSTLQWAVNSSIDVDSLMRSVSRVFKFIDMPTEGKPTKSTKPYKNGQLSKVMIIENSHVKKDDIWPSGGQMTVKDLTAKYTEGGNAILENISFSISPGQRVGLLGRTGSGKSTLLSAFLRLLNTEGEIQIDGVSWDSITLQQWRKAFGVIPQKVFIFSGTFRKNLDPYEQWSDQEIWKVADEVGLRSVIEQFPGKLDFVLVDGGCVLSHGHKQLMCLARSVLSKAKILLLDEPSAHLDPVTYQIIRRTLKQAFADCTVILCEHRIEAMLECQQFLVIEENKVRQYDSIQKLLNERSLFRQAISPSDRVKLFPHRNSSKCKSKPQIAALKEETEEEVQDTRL
Procedure, shortened: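 Chemiluminescent read-out of surface HRP (15 min, dark) after PBS washes. Activity is normalized as 100×(sample−DMSO)/(3 μM co-corrector alone−DMSO).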

CFTR ΔF508 = biological target: T2, CFTR ΔF508 (Homo sapiens, UniProt P13569, DEL508-508); assay: Chronic TECC assay, primary bronchial epithelial cells of CF patients homozygous for CFTR ΔF508 (corrector, co-corrector and potentiator); conditions: chronic TECC, AUC = full area under the curve upon forskolin stimulation; for % Activity at 3 μM (AUC**): test compound at 3 μM; for % Activity at 1 μM (AUC**): test compound at 1 μM; for EC50: read-out: EC50 (nM) (AUC**)
T2 construct: bronchial epithelial cells isolated from CF patients homozygous for the CFTR ΔF508 mutation; McGill University; Asterand; University of North Carolina hAEC-CF; host or cells: primary human bronchial epithelial cells from CF patients homozygous for ΔF508, differentiated at air-liquid interface
T2 sequence (P13569 with tags, fused parts or gaps DEL508-508): as above
Procedure, shortened: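 Primary bronchial epithelial cells from ΔF508-homozygous CF patients on collagen IV-coated Transwells were chronically treated with test compound plus corrector and potentiator, which were re-added before recording. Ieq was derived from PD and Rt in NaCl-Ringer, pH 7.4, at 37° C, with apical amiloride and bilateral forskolin, recorded every 2 min over 20 min. Ieq increase was normalized to controls, and EC50 was taken from per-well concentrations.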

ΔF508-CFTR [2] = biological target: T1, ΔF508-CFTR; assay: CFTR cell surface levels using HRP-tagged ΔF508-CFTR expressing CFBE cells, intrinsic corrector capacity; design: % Activation: concentration or dose not given beside the values; conditions: HRP-tagged ΔF508-CFTR expressing CFBE41o- cells, compound alone (intrinsic corrector capacity), 20 hours at 33° C.; for EC50: read-out: EC50
Procedure, shortened: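 Surface ΔF508-CFTR was measured as HRP chemiluminescence from an extracellular-loop-4 tag, expressed as percent activity between DMSO and a […] corrector control.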

Row | SMILES | % Activation (ΔF508-CFTR [1]) [%] | EC50 (ΔF508-CFTR [1]) [µM] | % Activity at 3 μM (AUC**) (CFTR ΔF508) [%] | % Activation (ΔF508-CFTR [2]) [%] | EC50 (ΔF508-CFTR [2]) [µM] | % Activity at 1 μM (AUC**) (CFTR ΔF508) [%] | EC50 (CFTR ΔF508) [nM]
1 | COCC1CCN(c2cc(C(=O)NS(=O)(=O)N3CCC(N4CCOCC4)C3)nc3c2c(C2CCC2)nn3-c2ccc(F)cc2)CC1 (stereo not drawn) [Compound 608, 3-cyclobutyl-1-(4-fluorophenyl)-4-[4-(methoxymethyl)piperidin-1-yl]-N-[3-(morpholin-4-yl)pyrrolidine-1-sulfonyl]-1H-pyrazolo[3,4-b]pyridine-6-carboxamide] | 365.7 | 0.0548 | 442.1916 | 194.67 | 0.104 |  | 
2 | COCC1CCN(c2cc(C(=O)NS(=O)(=O)N3CCN(C4CC4)CC3)nc3c2c(C2CCC2)nn3-c2ccc(F)cc2)CC1 [Compound 609, 3-cyclobutyl-N-(4-cyclopropylpiperazine-1-sulfonyl)-1-(4-fluorophenyl)-4-[4-(methoxymethyl)piperidin-1-yl]-1H-pyrazolo[3,4-b]pyridine-6-carboxamide] | 414.2 | 0.109 | 306.6667 | 202.53 | 0.249 |  | 
3 | CC(C)N1CCC(c2cc(C(=O)NS(C)(=O)=O)nc3c2c(C2CCC2)nn3-c2ccc(F)cc2)CC1 [Compound 611, 3-cyclobutyl-1-(4-fluorophenyl)-N-(methanesulfonyl)-4-[1-(propan-2-yl)piperidin-4-yl]-1H-pyrazolo[3,4-b]pyridine-6-carboxamide] | 236.7 | 2.62 | 176.7495 | 77.39 | 3.33 |  | 
4 | CN(C)S(=O)(=O)NC(=O)c1cc(N2CCC3(CC2)CCN(C2COC2)CC3)c2c(C3CCC3)nn(-c3ccc(F)cc3)c2n1 [Compound 614, 3-cyclobutyl-N-(dimethylsulfamoyl)-1-(4-fluorophenyl)-4-[9-(oxetan-3-yl)-3,9-diazaspiro[5.5]undecan-3-yl]-1H-pyrazolo[3,4-b]pyridine-6-carboxamide] | 381.35 | 0.171 | 407.7118 | 172 | 0.211 |  | 
5 | CC(C)Oc1nccc(-n2nc(C3CCC3)c3c(N4CCC(N5CCOCC5)CC4)cc(C(=O)NS(=O)(=O)N(C)C)nc32)n1 [Compound 621, 3-cyclobutyl-N-(dimethylsulfamoyl)-4-[4-(morpholin-4-yl)piperidin-1-yl]-1-{2-[(propan-2-yl)oxy]pyrimidin-4-yl}-1H-pyrazolo[3,4-b]pyridine-6-carboxamide] | 348.55 | 0.077 | 256.6667 | 160.45 | 0.173 |  | 
6 | CN(C)S(=O)(=O)NC(=O)c1cc(N2CCC(N3CCOCC3)CC2)c2c(C3CCC3)nn(-c3ccc4c(c3)OC(F)(F)O4)c2n1 [Compound 623, 3-cyclobutyl-1-(2,2-difluoro-2H-1,3-benzodioxol-5-yl)-N-(dimethylsulfamoyl)-4-[4-(morpholin-4-yl)piperidin-1-yl]-1H-pyrazolo[3,4-b]pyridine-6-carboxamide] | 424.77 | 0.0556 | 433.3333 | 238.53 | 0.113 |  | 
7 | CN1CCN(S(=O)(=O)NC(=O)c2cc(N3CCC(N4CCOCC4)CC3)c3c(C4CCC4)nn(-c4ccc(F)cc4)c3n2)CC1 [Compound 624, 3-cyclobutyl-1-(4-fluorophenyl)-N-(4-methylpiperazine-1-sulfonyl)-4-[4-(morpholin-4-yl)piperidin-1-yl]-1H-pyrazolo[3,4-b]pyridine-6-carboxamide] | 274.15 | 0.549 | 310 | 100.59 | 1.2 |  | 
8 | CC(C)N1CCC2CN(c3cc(C(=O)NS(=O)(=O)N(C)C)nc4c3c(C3CCC3)nn4-c3ccc(F)cc3)CCC21 (stereo not drawn) [Compound 625, 3-cyclobutyl-N-(dimethylsulfamoyl)-1-(4-fluorophenyl)-4-[1-(propan-2-yl)octahydro-5H-pyrrolo[3,2-c]pyridin-5-yl]-1H-pyrazolo[3,4-b]pyridine-6-carboxamide] | 353.87 | 0.126 |  | 182.2 | 0.223 | 403.3333 | 
9 | CN(C)S(=O)(=O)NC(=O)c1cc(N2CCC3C(CCN3C3CCC3)C2)c2c(C3CCC3)nn(-c3ccc(F)cc3)c2n1 (stereo not drawn) [Compound 626, 3-cyclobutyl-4-(1-cyclobutyloctahydro-5H-pyrrolo[3,2-c]pyridin-5-yl)-N-(dimethylsulfamoyl)-1-(4-fluorophenyl)-1H-pyrazolo[3,4-b]pyridine-6-carboxamide] | 418.4 | 0.111 | 387.4854 | 206.6 | 0.151 |  | 
10 | CN(C)S(=O)(=O)NC(=O)c1cc(N2CCC3C(CCN3C3COC3)C2)c2c(C3CCC3)nn(-c3ccc(F)cc3)c2n1 (stereo not drawn) [Compound 627, 3-cyclobutyl-N-(dimethylsulfamoyl)-1-(4-fluorophenyl)-4-[1-(oxetan-3-yl)octahydro-5H-pyrrolo[3,2-c]pyridin-5-yl]-1H-pyrazolo[3,4-b]pyridine-6-carboxamide] | 348.57 | 0.0248 | 446.6667 | 162.47 | 0.0823 |  | 
11 | CN(C)S(=O)(=O)NC(=O)c1cc(N2CCC3C(CCN3C3CCOCC3)C2)c2c(C3CCC3)nn(-c3ccc(F)cc3)c2n1 (stereo not drawn) [Compound 628, 3-cyclobutyl-N-(dimethylsulfamoyl)-1-(4-fluorophenyl)-4-[1-(oxan-4-yl)octahydro-5H-pyrrolo[3,2-c]pyridin-5-yl]-1H-pyrazolo[3,4-b]pyridine-6-carboxamide] | 477.32 | 0.132 | 473.0586 | 283.25 | 0.425 |  | 88.4
12 | CNS(=O)(=O)NC(=O)c1cc(N2CCC(N3CCC(OC)CC3)CC2)c2c(C3CCC3)nn(-c3ccc(F)cc3)c2n1 [Compound 629, 3-cyclobutyl-1-(4-fluorophenyl)-4-(4-methoxy[1,4'-bipiperidin]-1'-yl)-N-(methylsulfamoyl)-1H-pyrazolo[3,4-b]pyridine-6-carboxamide] | 546.75 | 0.267 | 153.3918 | 337.34 | 0.517 |  | 6.85
13 | COC1CCN(C2CCN(c3cc(C(=O)NS(N)(=O)=O)nc4c3c(C3CCC3)nn4-c3ccc(F)cc3)CC2)CC1 [Compound 630, 3-cyclobutyl-1-(4-fluorophenyl)-4-(4-methoxy[1,4'-bipiperidin]-1'-yl)-N-sulfamoyl-1H-pyrazolo[3,4-b]pyridine-6-carboxamide] | 593.42 | 0.375 |  | 339.64 | 0.739 | 125.1944 | 47.1
14 | COC1CCN(C2CCN(c3cc(C(=O)NS(=O)(=O)N4CCC4)nc4c3c(C3CCC3)nn4-c3ccc(F)cc3)CC2)CC1 [Compound 632, N-(azetidine-1-sulfonyl)-3-cyclobutyl-1-(4-fluorophenyl)-4-(4-methoxy[1,4'-bipiperidin]-1'-yl)-1H-pyrazolo[3,4-b]pyridine-6-carboxamide] | 466.83 | 0.154 | 237.1158 | 252.75 | 0.304 |  | 29.3
15 | CC(C)Oc1nn(C2CCCCC2)c2nc(C(=O)NS(C)(=O)=O)cc(-c3ccc(CN4CC(N(C)C)C4)cc3)c12 [Compound 633, 1-cyclohexyl-4-(4-{[3-(dimethylamino)azetidin-1-yl]methyl}phenyl)-N-(methanesulfonyl)-3-[(propan-2-yl)oxy]-1H-pyrazolo[3,4-b]pyridine-6-carboxamide] | 400.44 | 0.207 |  | 180.46 | 0.345 |  | 204
16 | CC(C)Oc1nn(C2CCCCC2)c2nc(C(=O)NS(C)(=O)=O)cc(-c3ccc(CN4CCN(C(C)C)CC4)cc3)c12 [Compound 634, 1-cyclohexyl-N-(methanesulfonyl)-3-[(propan-2-yl)oxy]-4-(4-{[4-(propan-2-yl)piperazin-1-yl]methyl}phenyl)-1H-pyrazolo[3,4-b]pyridine-6-carboxamide] | 439.44 | 0.0788 |  | 227.46 | 0.2 |  | 138
